Experimental data from patent US20120053534A1, “INTRAVAGINAL DEVICES COMPRISING ANTICHOLINERGIC AGENTS, AND METHODS OF MAKING THEREOF” (priority 2010, published 2012).

Experiment: in vivo
Conditions: female, dog, plasma, po, 10 mg/day
Procedure: A study was conducted to determine the levels of oxybutynin and its active metabolite, N-desethyloxybutynin, present in plasma following oral and intravaginal administration of oxybutynin in dogs.
A 14 day study was conducted, where 8 young adult females were randomly assigned to 4 groups of 2 dogs each.

CCN(CC)CC#CCOC(=O)C(O)(c1ccccc1)C1CCCCC1 (stereo not shown) [oxybutynin, 4-diethylaminobut-2-ynyl2-cyclohexyl-2-hydroxy-2-phenyl-ethanoate]
Cmax: ~17.9 ng/mL
